According to paper PMC8425678, “1-Oxo-3,4-dihydroisoquinoline-4-carboxamides as novel druglike inhibitors of poly(ADP-ribose) polymerase (PARP) with favourable ADME characteristics” (Journal of Enzyme Inhibition and Medicinal Chemistry, 2021):
Where two headings read alike, the source gives them in different places.

Legend:
PARP2 [1] = molecular target: T1, PARP2 (Homo sapiens, UniProt Q9UGN5); details: cited from earlier work; for selectivity index (SI): PARP2 selectivity
T1 construct: purchased BPS Bioscience (San Diego, CA)
T1 sequence (Q9UGN5 whole entry): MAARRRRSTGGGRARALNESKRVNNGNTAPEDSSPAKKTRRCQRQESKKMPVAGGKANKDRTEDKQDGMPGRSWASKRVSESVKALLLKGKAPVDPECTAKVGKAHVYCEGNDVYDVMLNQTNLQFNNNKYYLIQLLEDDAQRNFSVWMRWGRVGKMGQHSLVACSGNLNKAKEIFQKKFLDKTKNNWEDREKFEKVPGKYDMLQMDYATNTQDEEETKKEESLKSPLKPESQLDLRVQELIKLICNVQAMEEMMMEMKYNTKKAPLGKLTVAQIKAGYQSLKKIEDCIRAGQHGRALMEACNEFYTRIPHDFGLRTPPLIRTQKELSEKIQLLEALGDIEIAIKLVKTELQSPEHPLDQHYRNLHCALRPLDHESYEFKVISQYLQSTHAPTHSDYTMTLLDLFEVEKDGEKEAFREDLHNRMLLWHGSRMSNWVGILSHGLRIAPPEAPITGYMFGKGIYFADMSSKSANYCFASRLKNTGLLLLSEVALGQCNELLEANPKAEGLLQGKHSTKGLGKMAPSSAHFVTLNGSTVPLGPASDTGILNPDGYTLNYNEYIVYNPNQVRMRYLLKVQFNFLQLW

PARP1 [2] = molecular target: T2, PARP1 (Homo sapiens, UniProt P09874); details: cited from earlier work
T2 construct: purchased BPS Bioscience (San Diego, CA)
T2 sequence (P09874 whole entry): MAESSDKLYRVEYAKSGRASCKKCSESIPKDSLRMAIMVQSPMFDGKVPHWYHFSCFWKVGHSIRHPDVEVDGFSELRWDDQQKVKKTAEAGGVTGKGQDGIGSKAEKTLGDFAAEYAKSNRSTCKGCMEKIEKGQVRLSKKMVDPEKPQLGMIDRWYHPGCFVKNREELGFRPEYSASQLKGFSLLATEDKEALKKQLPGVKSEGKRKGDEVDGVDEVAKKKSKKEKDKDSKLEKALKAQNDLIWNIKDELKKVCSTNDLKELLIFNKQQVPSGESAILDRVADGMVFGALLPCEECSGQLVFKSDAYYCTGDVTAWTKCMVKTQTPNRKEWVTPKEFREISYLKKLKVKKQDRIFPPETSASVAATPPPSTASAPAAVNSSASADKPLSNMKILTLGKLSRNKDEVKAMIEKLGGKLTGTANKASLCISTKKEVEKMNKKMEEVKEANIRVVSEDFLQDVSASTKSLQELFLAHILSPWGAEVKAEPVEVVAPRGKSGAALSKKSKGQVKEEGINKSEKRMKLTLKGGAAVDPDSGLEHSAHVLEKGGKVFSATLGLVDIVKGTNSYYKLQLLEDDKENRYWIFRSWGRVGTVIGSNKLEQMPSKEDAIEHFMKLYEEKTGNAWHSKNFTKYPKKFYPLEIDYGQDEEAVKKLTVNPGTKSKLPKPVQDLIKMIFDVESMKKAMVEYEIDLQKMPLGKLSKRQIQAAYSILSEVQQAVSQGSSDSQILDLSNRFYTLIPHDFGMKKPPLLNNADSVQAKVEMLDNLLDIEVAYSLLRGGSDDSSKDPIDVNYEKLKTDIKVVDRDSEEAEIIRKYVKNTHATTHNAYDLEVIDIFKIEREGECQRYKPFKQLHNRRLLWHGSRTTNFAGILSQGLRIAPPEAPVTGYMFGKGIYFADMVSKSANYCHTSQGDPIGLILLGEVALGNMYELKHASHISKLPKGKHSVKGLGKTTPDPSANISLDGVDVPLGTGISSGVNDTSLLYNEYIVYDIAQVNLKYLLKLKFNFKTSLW

PARP1 [3] = molecular target: T2, PARP1; assay: PARP1 colorimetric activity assay kit (BPS Bioscience); assay type: biochemical; details: for IC50: dose-response, mean (n = 3) ± SD, r^2 in brackets; for inhibition at 1 µM: read-out: PARP1 % inhibition at 1 µM, 1 µM compound, triplicate (n = 3)
Procedure: (§1) The thirty-six 1-oxo-3,4-dihydroisoquinoline-4-carboxamides 3a-aj and 1-oxoisoquinoline-4-carboxamide 11 were tested for inhibitory activity towards PARP1 and PARP2 using the commercially available colorimetric activity assay kit from BPS Bioscience (San Diego, CA) in full accordance of the supplier’s method description[13]^,[14]. The initial screening was performed against PARP1 at 1 µM concentration of each compound, in triplicate (n = 3) measurements.

PARP2 [4] = molecular target: T1, PARP2; assay: PARP2 colorimetric activity assay kit (BPS Bioscience); assay type: biochemical; details: for IC50: dose-response, mean (n = 3) ± SD, r^2 in brackets
Procedure: as §1

[5] = Aqueous PBS solubility determination; assay type: physicochemical; details: sodium phosphate buffer, kinetic from dmso stock, pH 7.4 0.01 M phosphate buffer solution, 37 °C
Procedure: The stock solution of the compound tested in DMSO (10 mM) was diluted with 0.01 M sodium phosphate buffer solution (pH 7.4) to the concentration of 100 µM, 80 µM, 60 µM, 50 µM, 40 µM, 30 µM, 20 µM and 10 µM. The serially diluted solutions were transferred into a 96-well plate (Corning 3635, UV Plate) and the plate was incubated at 37 °C for 2 h using BioSan PST-60HL-4 thermo shaker. The plate was read at the wavelength of 620 nm using spectrophotometric microplate reader Sunrise (Tecan, Australia). The optical density values were plotted against compound concentration and approximated by a linear relationship to determine the aqueous solubility.

[6] = Stability in human liver S9 fraction; assay type: in vitro ADME; details: human liver S9 0.5 mg/mL, 10 μM compound, 37 °C; intrinsic clearance
Procedure: (§2) The rate of enzymatic degradation of the compound in liver microsomes was determined by incubating a mixture containing 0.5 mg/mL of pooled human liver microsomes (XenoTech, USA, cat. # H2620), 10 μM of compound tested, 2 mM β-nicotinamide adenine dinucleotide (Carbosynth, UK, cat. # NN10871) and 4 mM magnesium chloride in 0.1 M sodium phosphate buffer (pH 7.4) in a solid-state thermostat at 37 °C. The rate of enzymatic degradation of the compound in human liver S9 fraction was determined by incubating a reaction mixture containing 0.5 mg/mL of pooled S9 human liver fractions (XenoTech, USA, cat # H0610), 10 μM of compound tested, 2 mM β-nicotinamide adenine dinucleotide (Carbosynth, UK, cat # NN10871) and 4 mM magnesium chloride in 0.1 M sodium phosphate buffer (pH 7.4) in a solid-state thermostat at 37 °C. The reaction was stopped with acetonitrile (100 μL MeCN per 100 μL of the reaction mixture). After stopping the reaction, the samples were centrifuged for 10 min at 10,000 rpm. The supernatant was analysed by chromatography using an Agilent 1260 chromatograph (Agilent, United States). Chromatographic analysis was performed in a gradient elution mode at a flow rate of 1 ml/min. A graph of the dependence of the logarithm of the area of the peak of the substance on time was built. The dependent coefficient of this straight line corresponded to the elimination constant k, on the basis of which the half-life of the drug (T1/2) and intrinsic clearance (Clint) were calculated.

[7] = Stability in human liver microsomes; assay type: in vitro ADME; details: HLM 0.5 mg/mL, 10 μM compound, 37 °C; intrinsic clearance
Procedure: as §2

[8] = Plasma stability determination; assay type: in vitro ADME, human; details: 4 h, 37 °C, 10 μM
Procedure: Determination of stability in human blood plasma was carried out using pooled human blood plasma obtained from ten healthy donors. The candidate stock solution (10 mM in DMSO) was diluted with the pooled blood plasma to a concentration of 10 μM (test solution). The test solution was kept in a solid-state thermostat for 4 h at a temperature of 37 °C. HPLC method using an Agilent 1260 chromatograph (Agilent, USA) was employed to determine the peak area of the compounds in the test samples corresponding to the initial test time (before exposure) and the final test time (after incubation in a solid-state thermostat for 4 h at 37 °C) with preliminary precipitation of protein mass with acetonitrile (300 μL MeCN per 100 μL of the reaction mixture). After stopping the reaction, the samples were centrifuged for 10 min at 10,000 rpm and the supernatant was collected. Chromatographic analysis was performed in a gradient elution mode at a flow rate of 1 ml/min.

[9] = Plasma protein binding determination (RED dialysis); assay type: in vitro ADME; details: pooled human blood plasma, 37 °C, read-out: plasma protein binding (% bound) (converted)
Procedure: Determination of binding to human blood plasma proteins was carried out using pooled human blood plasma obtained from ten healthy donors. Determination was performed using Thermo Scientific ™ Single-RED dialysis plates. Test solutions of the candidate (10 mM in DMSO) were prepared in blood plasma and in 0.01 M sodium phosphate buffer by dilution in pooled blood plasma to a concentration of 10 μM (test solution 1) and in buffer to a concentration of 10 μM (test solution 2), respectively. The test solutions were transferred to the chambers of the dialysis plate, incubated in an Environmental Shaker – Incubator ES-20/60 (Biosan, Latvia) for 4 h at a temperature of 37 °C at a speed of 130–250 rpm. During the incubation, passive diffusion of the unbound compound occurs, and after 4 h, equilibrium is reached between the chambers with plasma with buffer solution. At the end of the incubation time, samples were taken from the chambers of the plate. HPLC analysis performed using an Agilent 1260 chromatograph (Agilent, USA) allowed determination of the peak area of the compounds in the test samples with preliminary precipitation of proteins with acetonitrile (300 µL of acetonitrile per 100 µL of the reaction mixture). After stopping the reaction, the samples were centrifuged for 10 min at 10,000 rpm and the supernatant was collected.
The concentration of the test compound in the buffer and plasma chambers was calculated using the formula: С=At=4/At=0×10, where At=0 is the value of the peak area of the candidate's test solution on the chromatogram at the initial moment of time;
The % unbound compound was calculated using the formula: %Free=C1/C2×100, where C1 is the concentration value in the buffer chamber;

Compound | IC50 (PARP2 [1]) [nM] | IC50 (PARP1 [2]) [µM] | selectivity index (SI) (PARP2 [1]) | PARP1 inhibitory potency in words (PARP1 [3]; compared with 3l) | IC50 (PARP1 [3]) [nM] | inhibition at 1 µM (PARP1 [3]) [%] | SI, selectivity index (PARP2 over PARP1) (PARP2 [4]) | IC50 (PARP2 [4]) [nM] | solubility at 2 h [5] [µM] | Stability in the presence of hepatic S9 fraction [6] [µL/min/mg] | Stability in the presence of human liver microsomes [7] [µL/min/mg] | % compound remaining after incubation with human plasma [8] [%] | fraction unbound at 4 h, 10 µM [9] | melting point [°C] | fold better potency compared to 3l (PARP1 [3]; magic fluorine effect, 3aa vs 3l) [fold]
O=C(Nc1cccc2c(=O)[nH]ccc12)c1ccccc1 [Compound 2] | 1500 | – | – | – | – | – | – | – | – | – | – | – | – | – | –
O=C(Oc1cccc2c(=O)[nH]ccc12)c1ccccc1 [Compound 1b] | 150 | 9 | 60.0 | – | – | – | – | – | – | – | – | – | – | – | –
O=C1NCC(C(=O)N2CCC(N3CCCCC3)CC2)c2ccccc21 (stereo not shown) [Compound 3l, 4-([1,4'-Bipiperidine]-1'-carbonyl)-3,4-dihydroisoquinolin-1(2H)-one] | – | – | – | active | 156 ± 5.8 | 85.2 ± 2.6 | 2.23 | 70.1 ± 7.6 | > 100 | 0.3 | 2.6 | 92.6 | 0.332 | – | –
O=C(c1cc(Cc2n[nH]c(=O)c3ccccc23)ccc1F)N1CCN(C(=O)C2CC2)CC1 [Olaparib, reference compound] | – | – | – | – | – | – | – | – | > 100 | 1.1 | 15 | 100 | 0.098 | – | –
CC1CCN(C2CCN(C(=O)C3CNC(=O)c4cc(F)ccc43)CC2)CC1 (stereo not shown) [Compound 3ab, 7-Fluoro-4–(4-methyl-[1,4'-bipiperidine]-1'-carbonyl)-3,4-dihydroisoquinolin-1(2H)-one] | – | – | – | – | 82 ± 6.9 | 93.9 ± 0.2 | 2.82 | 28.8 ± 4.2 | – | – | – | – | – | 171 to 172 | –
O=C(Oc1cccc2c1CCNC2=O)c1ccccc1 [Compound 1a] | 800 | 13 | 16.3 | – | – | – | – | – | – | – | – | – | – | – | –
O=C1NCC(C(=O)N2CCC(N3CCCCC3)CC2)c2ccc(F)cc21 (stereo not shown) [Compound 3aa, 4-([1,4'-Bipiperidine]-1'-carbonyl)-7-fluoro-3,4-dihydroisoquinolin-1(2H)-one] | – | – | – | – | 63.1 ± 5.3 | 91.8 ± 0.7 | 2.17 | 29.4 ± 4.5 | > 100 | 0.1 | 3.4 | 100 | 0.29 | – | ~2.5
